Source: the supplement of paper PMC10307832

What was measured:
Assay in all cases: relative viability (nuclei count vs DMSO), 5 days (fraction); higher = more cells survive
[1] = compound: CC1=C(C(=NN1)C)CC2=C(C3=C(S2)N(C(=O)N(C3=O)C)CC(C)C)C(=O)N4C[C@@H](CO4)O + CC(=O)Nc1cccc(-n2c(=O)n(C3CC3)c(=O)c3c(Nc4ccc(I)cc4F)n(C)c(=O)c(C)c32)c1 [Trametinib] (partner 0.02 µM)
Procedure, shortened: (§1)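 Lung cancer cell lines were pin-tool dosed in 1536-well plates on the day after seeding, with either a lone drug or a fixed anchor-drug dose plus five library-drug doses (not always all listed) in √10 steps. Nuclei were counted on 4× images after 5 days. Relative viability is the ratio of treated-well to vehicle-well nuclei counts, with each value a median of duplicate plates.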

[2] = compound: CC1=C(C(=NN1)C)CC2=C(C3=C(S2)N(C(=O)N(C3=O)C)CC(C)C)C(=O)N4C[C@@H](CO4)O + CCNC(=O)c1noc(-c2cc(C(C)C)c(O)cc2O)c1-c1ccc(CN2CCOCC2)cc1 [Luminespib] (partner 0.01 µM)
Procedure, shortened: as §1

[3] = compound: Cc1ccccc1C(C(=O)NC1CCCCC1)N(C(=O)Cn1ccnc1C)c1cccc(F)c1 [IDH-C35] + O=C(c1cc(Cc2n[nH]c(=O)c3ccccc23)ccc1F)N1CCN(C(=O)C2CC2)CC1 [Olaparib] (partner 8 µM)
Procedure, shortened: as §1

[4] = compound: Cc1ccccc1C(C(=O)NC1CCCCC1)N(C(=O)Cn1ccnc1C)c1cccc(F)c1 [IDH-C35] + CS(=O)(=O)N1CCN(Cc2cc3nc(-c4cccc5[nH]ncc45)nc(N4CCOCC4)c3s2)CC1 [Pictilisib] (partner 1 µM)
Procedure, shortened: as §1

Row | Cell Line | relative viability ([1]; first compound 0.0025 µM) | relative viability ([1]; first compound 0.007906 µM) | relative viability ([1]; first compound 0.025 µM) | relative viability ([1]; first compound 0.07906 µM) | relative viability ([1]; first compound 0.25 µM) | relative viability ([2]; first compound 0.0025 µM) | relative viability ([2]; first compound 0.07906 µM) | relative viability ([2]; first compound 0.25 µM) | relative viability ([3]; first compound 0.08 µM) | relative viability ([3]; first compound 0.253 µM) | relative viability ([3]; first compound 0.8 µM) | relative viability ([3]; first compound 2.53 µM) | relative viability ([3]; first compound 8 µM) | relative viability ([4]; first compound 0.08 µM) | relative viability ([4]; first compound 0.253 µM) | relative viability ([4]; first compound 0.8 µM) | relative viability ([4]; first compound 2.53 µM) | relative viability ([4]; first compound 8 µM) | relative viability ([2]; first compound 0.007906 µM) | relative viability ([2]; first compound 0.025 µM)
1 | NCI-H23 | 0.42 | 0.526 | 0.421 | 0.359 | 0.397 | 0.242 | 0.23 | 0.219 | 0.306 | 0.329 | 0.33 | 0.321 | 0.381 | 0.473 | 0.494 | 0.526 | 0.397 | 0.456 | – | –
2 | NCI-H322M | 0.503 | 0.577 | 0.471 | 0.527 | 0.433 | 0.927 | 0.887 | 0.861 | 0.616 | 0.796 | 0.794 | 0.789 | 0.845 | 0.459 | 0.488 | 0.471 | 0.496 | 0.526 | 0.714 | 0.86
3 | NCI-H358 | 0.146 | 0.125 | 0.146 | 0.125 | 0.129 | 0.342 | 0.447 | 0.308 | 0.57 | 0.491 | 0.549 | 0.575 | 0.554 | 0.408 | 0.33 | 0.317 | 0.366 | 0.385 | 0.471 | 0.401
4 | NCI-H441 | 0.532 | 0.424 | 0.458 | 0.478 | 0.436 | 0.413 | 0.365 | 0.269 | 0.627 | 0.638 | 0.595 | 0.468 | 0.557 | 0.588 | 0.562 | 0.456 | 0.506 | 0.446 | 0.405 | 0.326
5 | NCI-H460 | 0.158 | 0.149 | 0.186 | 0.136 | 0.206 | 0.0312 | 0.0359 | 0.028 | 0.416 | 0.419 | 0.439 | 0.387 | 0.367 | 0.43 | 0.438 | 0.325 | 0.326 | 0.297 | 0.0506 | 0.037
6 | NCI-H520 | 0.671 | 0.824 | 0.455 | 0.457 | 0.463 | 0.211 | 0.199 | 0.185 | 0.309 | 0.284 | 0.313 | 0.308 | 0.351 | 0.211 | 0.283 | 0.283 | 0.238 | 0.317 | 0.24 | 0.217
7 | NCI-H596 | 0.789 | 0.871 | 0.878 | 0.76 | 0.886 | 0.991 | 1.03 | 1.24 | 0.591 | 0.653 | 0.773 | 0.751 | 0.785 | 0.434 | 0.442 | 0.435 | 0.537 | 0.384 | 1.12 | 0.992
8 | NCI-H647 | 0.506 | 0.582 | 0.579 | 0.558 | 0.448 | 0.135 | 0.325 | 0.163 | 0.453 | 0.516 | 0.435 | 0.586 | 0.508 | 0.445 | 0.411 | 0.339 | – | 0.417 | 0.138 | 0.171
9 | NCI-H650 | 1.09 | 1.01 | 1.15 | 0.982 | 1.04 | 0.84 | 0.829 | 0.951 | 0.334 | 0.393 | 0.366 | – | 0.376 | 0.926 | 0.863 | 0.847 | – | 0.851 | 0.798 | 0.72
10 | NCI-H661 | 0.624 | 0.59 | 0.505 | 0.583 | 0.56 | 0.877 | 0.913 | 0.885 | 0.758 | 0.743 | 0.738 | 0.71 | 0.688 | 0.346 | 0.446 | 0.404 | 0.534 | 0.427 | 0.938 | 0.824
11 | NCI-H727 | 0.348 | 0.374 | 0.442 | 0.379 | 0.34 | 0.309 | 0.369 | 0.387 | 0.633 | 0.873 | 0.705 | 0.7 | 0.717 | 0.528 | 0.522 | 0.54 | 0.441 | 0.43 | 0.378 | 0.387
12 | NCI-H838 | 0.498 | 0.569 | 0.393 | 0.452 | 0.505 | 0.295 | 0.273 | 0.239 | 0.797 | 0.787 | 0.779 | 0.785 | 0.745 | 0.414 | 0.506 | 0.453 | 0.508 | 0.423 | 0.265 | 0.312
13 | NCI-H1355 | 0.461 | 0.423 | 0.472 | 0.402 | 0.442 | 0.836 | 0.778 | 0.724 | 0.71 | 0.755 | 0.749 | 0.741 | 0.73 | 0.446 | 0.442 | 0.395 | 0.269 | 0.398 | 0.617 | 0.684
14 | NCI-H1395 | 1.07 | 0.988 | 0.994 | 1.04 | 1 | 0.768 | 0.461 | 0.631 | 0.436 | 0.449 | 0.473 | 0.463 | 0.464 | 0.601 | 0.555 | 0.681 | 0.603 | 0.697 | 0.785 | 0.607
15 | NCI-H1437 | 0.617 | 0.675 | 0.543 | 0.563 | 0.511 | 1.13 | 1.19 | 1.16 | 0.61 | 0.649 | 0.609 | 0.619 | 0.602 | 0.416 | 0.494 | 0.476 | 0.439 | 0.368 | 1.14 | 1.04
16 | NCI-H1650 | 0.626 | 0.687 | 0.759 | 0.62 | 0.788 | 0.188 | 0.192 | 0.217 | 0.783 | 0.65 | 0.769 | 0.588 | 0.757 | 0.607 | 0.576 | 0.557 | 0.4 | 0.511 | 0.192 | 0.203
